Patent publication US9850470B2, “Polyene-specific glycosyltransferase derived from Pseudonocardia autotrophica” (INHA-INDUSTRY PARTNERSHIP INSTITUTE, priority 2013, dated 2017)

Key:
[1] = hemolytic activity of NPP compared with nystatin; format: cell-based
[2] = solubility of NPP compared with nystatin; format: physicochemical
[3] = relative to nystatin which contains only a saccharide
[4] = relative to nystatin, which contains only mycosamine

- solubility compared with nystatin (in words) [2, 3]: higher solubility
- higher solubility than nystatin [2, 4]: more than 300 fold
SMILES: CC(=O)NC1C(OC2C(C)OC(OC3/C=C/C=C/C=C/C=C/CC/C=C/C=C/C(C)C(O)C(C)C(C)OC(=O)CC(O)CC(O)CC(O)CCC(O)C(O)CC4(O)CC(O)C(C(=O)O)C(C3)O4)C(O)C2N)OC(CO)C(O)C1O (stereo not shown) [NPP, nystatin-like polyene (NPP)]
- hemolytic activity compared with nystatin (in words) [1, 3]: lower hemolytic activity
- lower hemolytic activity than nystatin [1, 4]: 10 fold
